In paper PMC6429263, “Evolution and Antibacterial Evaluation of 8-Hydroxy-cycloberberine Derivatives as a Novel Family of Antibacterial Agents Against MRSA” (Molecules, 2019):
Values joined by “and” are separate entries in the source; they are usually repeats but may differ in a detail not shown here. Identical values can stand only once. Counter-ions that a name gives are not always drawn. Values belong to the compound of their own block, whether it stands above or below them.

Experiments:
MSSA ATCC 29213 = experiment: MIC, agar dilution, MSSA ATCC 29213; format: cell-based, S. aureus; conditions: Staphylococcus aureus; MSSA ATCC 29213; read-out: MIC
MSSA 15 = experiment: MIC, agar dilution, MSSA 15 (clinical isolate); format: cell-based, S. aureus; conditions: Staphylococcus aureus; MSSA 15, isolated from patients in China; read-out: MIC
MSSA 16-1 = experiment: MIC, agar dilution, MSSA 16-1 (clinical isolate); format: cell-based, S. aureus; conditions: Staphylococcus aureus; MSSA 16-1, isolated from patients in China; read-out: MIC
MSSE ATCC 12228 = experiment: MIC, agar dilution, MSSE ATCC 12228; format: cell-based, S. epidermidis; conditions: Staphylococcus epidermidis, ATCC12228; MSSE ATCC 12228; read-out: MIC
MSSE 16-5 = experiment: MIC, agar dilution, MSSE 16-5 (clinical isolate); format: cell-based, S. epidermidis; conditions: Staphylococcus epidermidis; MSSE 16-5, isolated from patients in China; read-out: MIC
S.s ATCC 15305 = experiment: MIC, agar dilution, S.s ATCC 15305; format: cell-based; conditions: Staphylococcus saprophyticus, ATCC15305; S. saprophyticus ATCC 15305; read-out: MIC
S.h ATCC 35982 = experiment: MIC, agar dilution, S.h ATCC 35982; format: cell-based; conditions: Staphylococcus hominis, ATCC35982; S. hominis ATCC 35982; read-out: MIC
MRSA 13-18 = experiment: MIC, agar dilution, MRSA 13-18; format: cell-based; conditions: Staphylococcus aureus; MRSA 13-18; read-out: MIC
MRSA 13-23 = experiment: MIC, agar dilution, MRSA 13-23; format: cell-based; conditions: Staphylococcus aureus; MRSA 13-23; read-out: MIC
MRSA 16-34 = experiment: MIC, agar dilution, MRSA 16-34; format: cell-based; conditions: Staphylococcus aureus; MRSA 16-34; read-out: MIC
MRSA ATCC 43300 = experiment: MIC, agar dilution, MRSA ATCC 43300; format: cell-based; conditions: Staphylococcus aureus; MRSA ATCC 43300; read-out: MIC
MRSA ATCC-B AA-1708 = experiment: MIC, agar dilution, MRSA ATCC-BAA-1708 (mupA positive); format: cell-based; conditions: Staphylococcus aureus; MRSA ATCC-BAA-1708, mupA positive (mupirocin resistance); read-out: MIC
MRSA ATCC -BAA-976 = experiment: MIC, agar dilution, MRSA ATCC-BAA-976 (clindamycin-resistant); format: cell-based; conditions: Staphylococcus aureus; MRSA ATCC-BAA-976, clindamycin-resistant S. aureus; read-out: MIC
VISA ATCC 700698 = experiment: MIC, agar dilution, VISA ATCC 700698; format: cell-based; conditions: Staphylococcus aureus; VISA ATCC 700698; read-out: MIC
VISA ATCC 700699 = experiment: MIC, agar dilution, VISA ATCC 700699; format: cell-based; conditions: Staphylococcus aureus; VISA ATCC 700699; read-out: MIC
MRSE 13-3 = experiment: MIC, agar dilution, MRSE 13-3; format: cell-based, S. epidermidis; conditions: Staphylococcus epidermidis; MRSE 13-3; read-out: MIC
MRSE 16-5 = experiment: MIC, agar dilution, MRSE 16-5; format: cell-based, S. epidermidis; conditions: Staphylococcus epidermidis; MRSE 16-5; read-out: MIC

melting point: 248 to 250 °C
SMILES: COc1ccc2c(c[n+]3ccc4cc5c(c6c(Cc7ccccc7)cc2c3c46)OCO5)c1O (as salt: chloride) [13a, 1,2-Methylenedioxy-8-hydroxy-9-methoxy-13-benzylcycloberberine chloride]

melting point: 203 to 205 °C
SMILES: COc1ccc2c(c[n+]3ccc4cc5c(c6c(Cc7ccc(F)cc7)cc2c3c46)OCO5)c1O (as salt: chloride) [13b, 1,2-Methylenedioxy-8-hydroxy-9-methoxy-13-p-fluorobenzylcycloberberine chloride]

melting point: 218 to 220 °C
SMILES: COc1ccc2c(c[n+]3ccc4cc5c(c6c(Cc7ccc(F)cc7F)cc2c3c46)OCO5)c1O (as salt: chloride) [13c, 1,2-Methylenedioxy-8-hydroxy-9-methoxy-13-2′,4′-difluorobenzylcycloberberine chloride]

melting point: 214 to 216 °C
SMILES: COc1ccc2c(c[n+]3ccc4cc5c(c6c(Cc7c(F)cccc7F)cc2c3c46)OCO5)c1O (as salt: chloride) [13d, 1,2-Methylenedioxy-8-hydroxy-9-methoxy-13-2′,6′-difluorobenzylcycloberberine chloride]

melting point: 199 to 201 °C
SMILES: COc1ccc2c(c[n+]3ccc4cc5c(c6c(Cc7ccc(Cl)cc7)cc2c3c46)OCO5)c1O (as salt: chloride) [13e, 1,2-Methylenedioxy-8-hydroxy-9-methoxy-13-p-chlorobenzylcycloberberine chloride]

melting point: 207 to 209 °C
SMILES: COc1ccc2c(c[n+]3ccc4cc5c(c6c(Cc7ccc(Br)cc7)cc2c3c46)OCO5)c1O (as salt: chloride) [13f, 1,2-Methylenedioxy-8-hydroxy-9-methoxy-13-p-bromobenzylcycloberberine chloride]

melting point: 203 to 205 °C
SMILES: COc1ccc2c(c[n+]3ccc4cc5c(c6c(Cc7ccccc7C)cc2c3c46)OCO5)c1O (as salt: chloride) [13g, 1,2-Methylenedioxy-8-hydroxy-9-methoxy-13-o-methylbenzylcycloberberine chloride]

melting point: 203 to 205 °C
SMILES: COc1ccc2c(c[n+]3ccc4cc5c(c6c(Cc7cccc(C)c7)cc2c3c46)OCO5)c1O (as salt: chloride) [13h, 1,2-Methylenedioxy-8-hydroxy-9-methoxy-13-m-methylbenzylcycloberberine chloride]

melting point: 229 to 231 °C
SMILES: COc1ccc2c(c[n+]3ccc4cc5c(c6c(Cc7ccc(C)cc7)cc2c3c46)OCO5)c1O (as salt: chloride) [13i, 1,2-Methylenedioxy-8-hydroxy-9-methoxy-13-p-methylbenzylcycloberberine chloride]

melting point: 218 to 220 °C
SMILES: COc1ccc2c(c[n+]3ccc4cc5c(c6c(Cc7cc(C)cc(C)c7)cc2c3c46)OCO5)c1O (as salt: chloride) [13j, 1,2-Methylenedioxy-8-hydroxy-9-methoxy-13-3′,5′-dimethylbenzylcycloberberine chloride]

melting point: 212 to 214 °C
SMILES: COc1ccc2c(c[n+]3ccc4cc5c(c6c(Cc7ccc(C(C)(C)C)cc7)cc2c3c46)OCO5)c1O (as salt: chloride) [13k, 1,2-Methylenedioxy-8-hydroxy-9-methoxy-13-p-tert-butylmethylbenzylcyclo berberine chloride]

melting point: 185 to 187 °C
SMILES: COc1ccc2c(c[n+]3ccc4cc5c(c6c(Cc7ccc(OC(F)(F)F)cc7)cc2c3c46)OCO5)c1O (as salt: chloride) [13l, 1,2-Methylenedioxy-8-hydroxy-9-methoxy-13-p-trifluoromethoxybenzylcyclo berberine chloride]

melting point: 209 to 211 °C
SMILES: COc1ccc2c(c[n+]3ccc4cc5c(c6c(Cc7ccccc7C#N)cc2c3c46)OCO5)c1O (as salt: chloride) [13m, 1,2-Methylenedioxy-8-hydroxy-9-methoxy-13-o-cyanbenzylcycloberberine chloride]

melting point: 189 to 191 °C
SMILES: COc1ccc2c(c[n+]3ccc4cc5c(c6c(Cc7cccc(C#N)c7)cc2c3c46)OCO5)c1O (as salt: chloride) [13n, 1,2-Methylenedioxy-8-hydroxy-9-dimethoxy-13-m-cyanbenzylcycloberberine chloride]

melting point: 197 to 199 °C
SMILES: COc1ccc2c(c[n+]3ccc4cc5c(c6c(Cc7ccc(C#N)cc7)cc2c3c46)OCO5)c1O (as salt: chloride) [13o, 1,2-Methylenedioxy-8-hydroxy-9-dimethoxy-13-p-cyanbenzylcycloberberine chloride]

melting point: 199 to 201 °C
SMILES: COc1ccc2c(c[n+]3ccc4cc5c(c6c(Cc7ccccc7[N+](=O)[O-])cc2c3c46)OCO5)c1O (as salt: chloride) [13p, 1,2-Methylenedioxy-8-hydroxy-9-methoxy-13-o-nitrobenzylcycloberberine chloride]

melting point: 186 to 188 °C
SMILES: COc1ccc2c(c[n+]3ccc4cc5c(c6c(Cc7cccc([N+](=O)[O-])c7)cc2c3c46)OCO5)c1O (as salt: chloride) [13q, 1,2-Methylenedioxy-8-hydroxy-9-methoxy-13-m-nitrobenzylcycloberberine chloride]

melting point: 186 to 188 °C
SMILES: COc1ccc2c(c[n+]3ccc4cc5c(c6c(Cc7ccc([N+](=O)[O-])cc7)cc2c3c46)OCO5)c1O (as salt: chloride) [13r, 1,2-Methylenedioxy-8-hydroxy-9-methoxy-13-p-nitrobenzylcycloberberine chloride]

melting point: 213 to 215 °C
SMILES: COc1ccc2c(c[n+]3ccc4cc5c(c6c(C(C)c7ccccc7)cc2c3c46)OCO5)c1O (stereo not shown) (as salt: chloride) [13s, 1,2-Methylenedioxy-8-hydroxy-9-methoxy-13-1′-phenylethylcycloberberine chloride]

melting point: 173 to 175 °C
SMILES: COC(=O)C(c1ccccc1)c1cc2c3ccc(OC)c(O)c3c[n+]3ccc4cc5c(c1c4c23)OCO5 (stereo not shown) (as salt: chloride) [13t, 1,2-Methylenedioxy-8-hydroxy-9-methoxy-13-2′-methoxy-2′-oxo-1′-phenylethylcycloberberine chloride]

melting point: 165 to 167 °C
SMILES: CCCc1cc2c3ccc(OC)c(O)c3c[n+]3ccc4cc5c(c1c4c23)OCO5 (as salt: chloride) [15b, 1,2-Methylenedioxy-8-hydroxy-9-methoxy-13-propylcycloberberine chloride]

melting point: 162 to 164 °C
SMILES: CCCCc1cc2c3ccc(OC)c(O)c3c[n+]3ccc4cc5c(c1c4c23)OCO5 (as salt: chloride) [15c, 1,2-Methylenedioxy-8-hydroxy-9-methoxy-13-butylcycloberberine chloride]

melting point: 176 to 178 °C and 180 to 182 °C
SMILES: COc1ccc2c(c[n+]3c4c2ccc2c(OC)c(OC)cc(c24)CC3)c1O (as salt: chloride) [compound 6, 1,2-Dimethoxy-8-hydroxy-9-methoxycycloberberine Chloride]

melting point: 191 to 193 °C
SMILES: COc1ccc2c(c[n+]3c4c2ccc2c(O)c(O)cc(c24)CC3)c1O (as salt: chloride) [compound 10, 1,2,8-Trihydroxy-9-methoxycycloberberine Chloride]

MIC (MSSA ATCC 29213): > 64 µg/mL
MIC (MSSA 15): > 64 µg/mL
MIC (MSSA 16-1): > 64 µg/mL
MIC (MSSE ATCC 12228): > 64 µg/mL
MIC (MSSE 16-5): > 64 µg/mL
MIC (S.s ATCC 15305): > 64 µg/mL
MIC (S.h ATCC 35982): > 64 µg/mL
MIC (MRSA 13-18): > 64 µg/mL
MIC (MRSA 13-23): > 64 µg/mL
MIC (MRSA 16-34): > 64 µg/mL
MIC (MRSA ATCC 43300): > 64 µg/mL
MIC (MRSA ATCC-B AA-1708): > 64 µg/mL
MIC (MRSA ATCC -BAA-976): > 64 µg/mL
MIC (VISA ATCC 700698): > 64 µg/mL
MIC (VISA ATCC 700699): > 64 µg/mL
MIC (MRSE 13-3): > 64 µg/mL
MIC (MRSE 16-5): > 64 µg/mL
SMILES: COc1ccc2c(c[n+]3ccc4cc5c(c6c(Cc7ccc(F)cc7)cc2c3c46)OCO5)c1O [13b, 1,2-Methylenedioxy-8-hydroxy-9-methoxy-13-p-fluorobenzylcycloberberine chloride]

MIC (MSSA ATCC 29213): 8 µg/mL
MIC (MSSA 15): 8 µg/mL
MIC (MSSA 16-1): 8 µg/mL
MIC (MSSE ATCC 12228): 8 µg/mL
MIC (MSSE 16-5): 8 µg/mL
MIC (S.s ATCC 15305): 16 µg/mL
MIC (S.h ATCC 35982): 8 µg/mL
MIC (MRSA 13-18): 16 µg/mL
MIC (MRSA 13-23): 8 µg/mL
MIC (MRSA 16-34): 8 µg/mL
MIC (MRSA ATCC 43300): 8 µg/mL
MIC (MRSA ATCC-B AA-1708): 4 µg/mL
MIC (MRSA ATCC -BAA-976): 8 µg/mL
MIC (VISA ATCC 700698): 8 µg/mL
MIC (VISA ATCC 700699): 8 µg/mL
MIC (MRSE 13-3): 8 µg/mL
MIC (MRSE 16-5): 8 µg/mL
SMILES: COc1ccc2c(c[n+]3ccc4cc5c(c6c(Cc7ccc(F)cc7F)cc2c3c46)OCO5)c1O [13c, 1,2-Methylenedioxy-8-hydroxy-9-methoxy-13-2′,4′-difluorobenzylcycloberberine chloride]
